Results as given in ChEMBL document CHEMBL3120096 (J Med Chem, 2014).

Tests used:
[1] = target: T1, Leucine-rich repeat serine/threonine-protein kinase 2 (Homo sapiens, UniProt Q5S007); test: Inhibition of LRRK2 (unknown origin) phosphorylation by cell-based assay
Homo sapiens = species: Homo sapiens; test: Selectivity ratio of Ki for JAK2 (unknown origin) to Ki for LRRK2 (unknown origin)
MDR1 (P-gp, ABCB1) = MDR1 (P-gp, ABCB1) (Homo sapiens, UniProt P08183); test: Activity at human MDR1 transfected in MDCK cells assessed as efflux ratio of apparent permeability from basolateral to apical side over apical to basolateral side at 5 uM; assay type: ADME, cell-based
[2] = Reversible inhibition of CYP in human liver microsomes by mass spectrophotometric analysis; assay type: ADME
Cytochrome P450 1A2 [3] = target: T2, Cytochrome P450 1A2 (Homo sapiens, UniProt P05177); test: Time dependent inhibition of CYP1A2 in human liver microsomes using phenacetin as substrate by HPLC-MS analysis; assay type: ADME
T2 sequence (P05177 whole entry): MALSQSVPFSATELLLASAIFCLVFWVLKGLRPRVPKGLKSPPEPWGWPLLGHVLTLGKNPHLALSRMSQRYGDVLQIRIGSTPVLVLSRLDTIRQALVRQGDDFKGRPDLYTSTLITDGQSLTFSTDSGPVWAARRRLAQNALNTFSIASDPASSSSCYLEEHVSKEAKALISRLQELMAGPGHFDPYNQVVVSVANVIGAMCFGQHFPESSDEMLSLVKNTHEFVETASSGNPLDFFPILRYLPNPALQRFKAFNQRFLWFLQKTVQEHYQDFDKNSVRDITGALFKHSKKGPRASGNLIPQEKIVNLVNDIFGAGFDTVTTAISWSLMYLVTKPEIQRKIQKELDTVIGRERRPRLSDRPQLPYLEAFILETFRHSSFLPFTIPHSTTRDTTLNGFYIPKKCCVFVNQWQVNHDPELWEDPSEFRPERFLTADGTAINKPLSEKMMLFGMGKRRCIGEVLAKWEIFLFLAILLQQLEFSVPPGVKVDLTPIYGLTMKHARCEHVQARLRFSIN

[4] = Ratio of unbound drug level in brain to plasma in Sprague-Dawley rat; assay type: ADME, organism-based
[5] = Clearance in Sprague-Dawley rat at 1 mg/kg, po and 0.5 mg/kg, iv; assay type: ADME, organism-based; settings: in vivo
Rattus norvegicus = test: Unbound clearance in Sprague-Dawley rat at 1 mg/kg, po and 0.5 mg/kg, iv; assay type: ADME, organism-based; settings: in vivo
[6] = Clearance in rat hepatocytes at 1 uM by LC-MS/MS analysis; assay type: ADME, cell-based, Hepatocyte
[7] = Clearance in human hepatocytes at 1 uM by LC-MS/MS analysis; assay type: ADME, cell-based, Hepatocyte
[8] = target: T1, Leucine-rich repeat serine/threonine-protein kinase 2; test: Inhibition of LRRK2 (unknown origin)
BCRP (ABCG2) = target: T3, BCRP (ABCG2) (Homo sapiens, UniProt Q9UNQ0); test: Activity at BCRP transporter (unknown origin) transfected in MDCK cells assessed as efflux ratio of permeability; assay type: ADME, cell-based
T3 sequence (Q9UNQ0 whole entry): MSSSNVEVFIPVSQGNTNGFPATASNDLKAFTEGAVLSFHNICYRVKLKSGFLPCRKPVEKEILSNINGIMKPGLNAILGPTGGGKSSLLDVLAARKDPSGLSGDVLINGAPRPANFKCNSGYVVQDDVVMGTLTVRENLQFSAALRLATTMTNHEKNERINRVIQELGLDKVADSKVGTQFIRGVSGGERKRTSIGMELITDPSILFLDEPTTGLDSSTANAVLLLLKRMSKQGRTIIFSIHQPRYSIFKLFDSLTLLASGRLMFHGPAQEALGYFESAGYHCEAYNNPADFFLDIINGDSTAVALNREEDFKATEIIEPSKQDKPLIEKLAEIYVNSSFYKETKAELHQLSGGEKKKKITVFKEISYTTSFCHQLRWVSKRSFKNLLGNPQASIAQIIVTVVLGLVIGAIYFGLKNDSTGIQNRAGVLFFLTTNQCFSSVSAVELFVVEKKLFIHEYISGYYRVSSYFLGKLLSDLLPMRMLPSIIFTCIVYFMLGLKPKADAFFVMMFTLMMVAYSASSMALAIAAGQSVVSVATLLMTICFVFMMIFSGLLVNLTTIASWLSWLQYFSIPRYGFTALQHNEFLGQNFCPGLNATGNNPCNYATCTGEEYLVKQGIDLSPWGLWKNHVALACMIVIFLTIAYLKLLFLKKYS

[9] = Half life in Sprague-Dawley rat at 1 mg/kg, po and 0.5 mg/kg, iv; assay type: ADME, organism-based; settings: in vivo
[10] = Time dependent inhibition of CYP in human liver microsomes by HPLC-MS analysis; assay type: ADME
[11] = Volume of distribution in Sprague-Dawley rat at 1 mg/kg, po and 0.5 mg/kg, iv; assay type: ADME, organism-based; settings: in vivo
[12] = Oral bioavailability in cynomolgus monkey at 1 mg/kg; assay type: ADME, organism-based, Macaca fascicularis; settings: in vivo
Cynomolgus monkey = test: Unbound clearance in cynomolgus monkey at 1 mg/kg, po and 0.5 mg/kg, iv; assay type: ADME, organism-based, Macaca fascicularis; settings: in vivo
[13] = Half life in cynomolgus monkey at 0.5 mg/kg, iv; assay type: ADME, organism-based, Macaca fascicularis; set-up: dose 0.5 mg/kg, route intravenous; settings: in vivo
[14] = Clearance in cynomolgus monkey at 1 mg/kg, po and 0.5 mg/kg, iv; assay type: ADME, organism-based, Macaca fascicularis; settings: in vivo
[15] = Plasma protein binding in cynomolgus monkey at 5 uM after 4 hrs by equilibrium dialysis technique; assay type: ADME, cell-free, Macaca fascicularis; settings: read-out: PPB (converted)
Mus musculus = test: In vivo inhibition of human LRRK2 G2019S Parkinson's disease mutant expressed in BAC mouse assessed as inhibition of autophosphorylation at Ser1292 in brain at 10 to 50 mg/kg, ip after 1 to 6 hrs; assay type: functional, organism-based; set-up: dose 10-50 mg/kg, route intraperitoneal
TAK1/TAB1 (Homo sapiens) = TAK1/TAB1 (Homo sapiens) (UniProt Q15750+O43318); test: Inhibition of TAK1/TAB1 (unknown origin) at 0.1 uM relative to control; assay type: protein-complex assay
Liver microsome [16] = test: Drug metabolism in human liver microsomes in presence of methoxyamine; assay type: ADME
Liver microsome [17] = test: Drug metabolism in human liver microsomes in presence of glutathione; assay type: ADME
[18] = Oral bioavailability in Sprague-Dawley rat at 1 mg/kg; assay type: ADME, organism-based; settings: in vivo
Cytochrome P450 2B6 = target: T4, Cytochrome P450 2B6 (Homo sapiens, UniProt P20813); test: Induction of CYP2B6 in human hepatocytes; assay type: ADME, cell-based, Hepatocyte
T4 sequence (P20813 whole entry): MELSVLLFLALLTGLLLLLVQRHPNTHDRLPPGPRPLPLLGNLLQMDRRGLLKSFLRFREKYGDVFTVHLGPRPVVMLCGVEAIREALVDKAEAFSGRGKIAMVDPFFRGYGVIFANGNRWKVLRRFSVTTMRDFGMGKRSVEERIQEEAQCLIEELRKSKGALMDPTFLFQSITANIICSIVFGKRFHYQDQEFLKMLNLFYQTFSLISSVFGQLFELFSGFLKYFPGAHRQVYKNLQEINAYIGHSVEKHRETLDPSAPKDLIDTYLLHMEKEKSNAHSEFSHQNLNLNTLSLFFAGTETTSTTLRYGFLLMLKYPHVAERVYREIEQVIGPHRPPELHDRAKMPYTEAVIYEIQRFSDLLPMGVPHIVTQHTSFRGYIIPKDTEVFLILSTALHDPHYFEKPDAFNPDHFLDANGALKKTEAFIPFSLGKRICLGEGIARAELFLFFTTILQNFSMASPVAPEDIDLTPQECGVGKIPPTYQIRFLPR

Cytochrome P450 1A2 [19] = target: T2, Cytochrome P450 1A2; test: Induction of CYP1A2 in human hepatocytes; assay type: ADME, cell-based, Hepatocyte
Cytochrome P450 3A4 = Cytochrome P450 3A4 (Homo sapiens, UniProt P08684); test: Induction of CYP3A4 in human hepatocytes; assay type: ADME, cell-based, Hepatocyte
[20] = Half life in Sprague-Dawley rat at 0.5 mg/kg, iv; assay type: ADME, organism-based; set-up: dose 0.5 mg/kg, route intravenous; settings: in vivo
[21] = Volume of distribution in Sprague-Dawley rat at 0.5 mg/kg, iv; assay type: ADME, organism-based; set-up: dose 0.5 mg/kg, route intravenous; settings: in vivo

T1 sequence (Q5S007 whole entry): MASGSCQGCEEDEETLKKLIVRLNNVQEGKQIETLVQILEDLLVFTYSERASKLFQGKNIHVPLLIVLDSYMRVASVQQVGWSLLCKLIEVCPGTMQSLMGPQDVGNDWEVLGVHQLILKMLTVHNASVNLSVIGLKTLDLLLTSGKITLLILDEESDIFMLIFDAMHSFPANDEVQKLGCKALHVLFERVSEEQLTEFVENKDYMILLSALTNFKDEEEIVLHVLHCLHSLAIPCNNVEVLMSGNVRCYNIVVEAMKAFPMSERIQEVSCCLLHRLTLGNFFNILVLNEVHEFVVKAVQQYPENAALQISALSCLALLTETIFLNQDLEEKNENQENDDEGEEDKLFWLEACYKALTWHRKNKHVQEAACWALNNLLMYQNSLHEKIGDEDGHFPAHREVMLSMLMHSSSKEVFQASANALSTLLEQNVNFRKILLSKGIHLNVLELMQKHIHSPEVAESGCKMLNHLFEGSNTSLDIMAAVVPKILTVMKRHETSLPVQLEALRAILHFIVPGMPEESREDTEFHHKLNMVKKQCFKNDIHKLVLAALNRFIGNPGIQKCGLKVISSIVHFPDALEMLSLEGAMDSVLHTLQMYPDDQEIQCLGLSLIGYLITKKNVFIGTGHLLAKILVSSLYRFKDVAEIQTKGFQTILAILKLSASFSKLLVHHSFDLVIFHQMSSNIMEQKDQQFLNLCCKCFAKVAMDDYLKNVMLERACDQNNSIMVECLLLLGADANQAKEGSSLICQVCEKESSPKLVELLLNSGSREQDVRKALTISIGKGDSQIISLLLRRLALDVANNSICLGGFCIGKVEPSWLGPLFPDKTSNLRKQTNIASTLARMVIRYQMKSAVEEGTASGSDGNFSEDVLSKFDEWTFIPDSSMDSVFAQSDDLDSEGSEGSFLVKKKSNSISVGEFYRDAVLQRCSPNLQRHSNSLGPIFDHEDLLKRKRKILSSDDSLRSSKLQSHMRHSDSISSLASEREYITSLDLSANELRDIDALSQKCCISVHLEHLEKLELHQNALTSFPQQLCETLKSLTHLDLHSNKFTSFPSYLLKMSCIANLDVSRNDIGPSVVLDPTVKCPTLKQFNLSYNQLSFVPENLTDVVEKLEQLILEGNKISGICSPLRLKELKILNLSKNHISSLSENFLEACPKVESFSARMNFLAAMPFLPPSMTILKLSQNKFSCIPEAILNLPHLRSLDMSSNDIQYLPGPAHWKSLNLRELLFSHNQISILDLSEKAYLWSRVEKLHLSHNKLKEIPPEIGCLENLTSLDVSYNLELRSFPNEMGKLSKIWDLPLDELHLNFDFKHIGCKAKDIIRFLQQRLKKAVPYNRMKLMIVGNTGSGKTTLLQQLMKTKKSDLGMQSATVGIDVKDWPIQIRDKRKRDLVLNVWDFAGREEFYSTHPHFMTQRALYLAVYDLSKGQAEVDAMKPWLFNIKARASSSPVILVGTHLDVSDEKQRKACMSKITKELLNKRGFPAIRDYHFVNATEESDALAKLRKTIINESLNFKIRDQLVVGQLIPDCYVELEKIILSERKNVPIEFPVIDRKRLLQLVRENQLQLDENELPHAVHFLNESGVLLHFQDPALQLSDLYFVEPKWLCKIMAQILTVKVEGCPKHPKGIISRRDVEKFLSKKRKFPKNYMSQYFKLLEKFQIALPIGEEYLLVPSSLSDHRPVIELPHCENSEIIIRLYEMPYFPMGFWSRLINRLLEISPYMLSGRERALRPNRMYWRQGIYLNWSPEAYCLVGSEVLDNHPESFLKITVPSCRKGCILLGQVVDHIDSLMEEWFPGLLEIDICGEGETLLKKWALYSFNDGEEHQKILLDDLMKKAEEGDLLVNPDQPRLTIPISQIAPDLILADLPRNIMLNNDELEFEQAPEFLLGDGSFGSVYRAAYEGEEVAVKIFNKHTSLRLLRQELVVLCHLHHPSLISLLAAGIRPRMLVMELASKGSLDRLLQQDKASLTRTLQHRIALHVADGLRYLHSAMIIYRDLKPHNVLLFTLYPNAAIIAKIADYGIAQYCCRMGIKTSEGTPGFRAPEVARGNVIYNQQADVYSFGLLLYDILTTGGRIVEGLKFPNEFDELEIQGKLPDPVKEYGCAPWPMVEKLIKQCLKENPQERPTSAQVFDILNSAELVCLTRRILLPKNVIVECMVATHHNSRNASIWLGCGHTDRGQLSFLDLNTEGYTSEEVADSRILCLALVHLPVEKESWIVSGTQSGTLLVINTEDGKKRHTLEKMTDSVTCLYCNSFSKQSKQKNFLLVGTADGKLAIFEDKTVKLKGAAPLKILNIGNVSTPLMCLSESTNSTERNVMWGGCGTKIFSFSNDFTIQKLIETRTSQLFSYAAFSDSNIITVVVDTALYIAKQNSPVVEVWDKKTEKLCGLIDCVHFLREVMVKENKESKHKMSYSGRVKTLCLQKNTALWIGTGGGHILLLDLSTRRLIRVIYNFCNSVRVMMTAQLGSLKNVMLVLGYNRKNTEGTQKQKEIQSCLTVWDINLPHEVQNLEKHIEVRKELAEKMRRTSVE
Chain of MDR1 (P-gp, ABCB1) (P08183 whole entry): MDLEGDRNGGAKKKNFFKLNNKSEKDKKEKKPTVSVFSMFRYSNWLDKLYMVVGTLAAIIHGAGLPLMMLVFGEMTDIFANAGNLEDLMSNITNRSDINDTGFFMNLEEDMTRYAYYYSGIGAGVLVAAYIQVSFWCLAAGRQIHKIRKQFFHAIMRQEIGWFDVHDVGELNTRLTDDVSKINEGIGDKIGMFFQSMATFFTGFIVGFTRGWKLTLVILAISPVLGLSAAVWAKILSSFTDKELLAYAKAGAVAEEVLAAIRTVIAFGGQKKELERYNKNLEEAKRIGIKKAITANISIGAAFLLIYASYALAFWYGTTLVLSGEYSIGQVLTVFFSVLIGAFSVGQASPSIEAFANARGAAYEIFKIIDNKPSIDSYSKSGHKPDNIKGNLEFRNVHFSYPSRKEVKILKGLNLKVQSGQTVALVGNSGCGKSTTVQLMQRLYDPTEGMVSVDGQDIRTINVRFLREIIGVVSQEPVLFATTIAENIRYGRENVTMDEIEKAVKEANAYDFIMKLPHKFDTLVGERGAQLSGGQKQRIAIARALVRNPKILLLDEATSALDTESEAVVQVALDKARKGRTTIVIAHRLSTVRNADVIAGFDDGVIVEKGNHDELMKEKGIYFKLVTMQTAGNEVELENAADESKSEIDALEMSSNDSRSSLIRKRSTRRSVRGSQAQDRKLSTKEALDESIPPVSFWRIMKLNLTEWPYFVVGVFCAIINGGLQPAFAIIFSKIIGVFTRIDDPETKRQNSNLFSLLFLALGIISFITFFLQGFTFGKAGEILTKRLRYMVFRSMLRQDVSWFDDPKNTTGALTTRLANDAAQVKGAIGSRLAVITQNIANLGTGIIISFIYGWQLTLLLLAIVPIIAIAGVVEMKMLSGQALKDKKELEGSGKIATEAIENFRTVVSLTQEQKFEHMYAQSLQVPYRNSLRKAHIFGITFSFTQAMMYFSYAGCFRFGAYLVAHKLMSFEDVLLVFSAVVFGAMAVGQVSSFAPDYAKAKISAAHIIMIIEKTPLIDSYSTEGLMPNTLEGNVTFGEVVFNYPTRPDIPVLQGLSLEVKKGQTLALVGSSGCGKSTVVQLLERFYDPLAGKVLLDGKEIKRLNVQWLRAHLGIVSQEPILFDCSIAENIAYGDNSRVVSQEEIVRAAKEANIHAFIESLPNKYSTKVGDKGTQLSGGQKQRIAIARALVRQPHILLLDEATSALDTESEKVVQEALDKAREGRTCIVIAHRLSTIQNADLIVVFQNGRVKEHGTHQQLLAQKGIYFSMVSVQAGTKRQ
Chain of Cytochrome P450 3A4 (P08684 whole entry): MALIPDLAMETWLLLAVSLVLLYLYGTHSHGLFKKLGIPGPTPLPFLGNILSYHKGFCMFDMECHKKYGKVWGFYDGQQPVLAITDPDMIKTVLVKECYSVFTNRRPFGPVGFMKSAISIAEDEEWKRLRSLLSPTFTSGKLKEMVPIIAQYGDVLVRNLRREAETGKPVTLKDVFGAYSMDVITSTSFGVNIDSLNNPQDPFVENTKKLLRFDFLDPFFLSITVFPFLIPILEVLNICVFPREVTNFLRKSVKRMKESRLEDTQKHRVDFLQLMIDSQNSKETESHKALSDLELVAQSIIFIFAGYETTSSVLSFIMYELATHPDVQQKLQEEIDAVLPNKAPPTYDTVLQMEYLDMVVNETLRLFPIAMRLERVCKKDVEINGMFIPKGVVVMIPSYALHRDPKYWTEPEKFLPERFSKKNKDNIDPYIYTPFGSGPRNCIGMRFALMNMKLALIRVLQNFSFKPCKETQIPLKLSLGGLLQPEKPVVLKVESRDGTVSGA

| SMILES | IC50 [1] | Ratio Ki (Homo sapiens) | efflux ratio at 5 µM (MDR1 (P-gp, ABCB1)) | inhibition (INH) [2] | Kp uu [4] | clearance [5] | CL free (Rattus norvegicus) | CLhep predicted at 1 µM [6] | CLhep predicted at 1 µM [7] | Ki [8] | further results |
| --- | --- | --- | --- | --- | --- | --- | --- | --- | --- | --- | --- |
| CNc1nc(Nc2cn(C(C)(C)C(=O)NC(C)C)nc2C)ncc1C(F)(F)F | 140 nM | > 150 | 1.3 | – | – | – | – | – | – | – | – |
| CNc1nc(Nc2cnn(C3COC3)c2C)ncc1C(F)(F)F | 29 nM | > 150 | 1.4 | Not Active | 0.3 | 56 mL/min/kg | 115 mL/min/kg | 17 mL/min/kg | 2 mL/min/kg | 2 nM | IC50 (Cytochrome P450 1A2 [3]): 2000 nM |
| CNc1nc(Nc2cn([C@H]3CCN(C4COC4)C[C@H]3F)nc2C)ncc1C(F)(F)F (relative stereo) | 14 nM | > 150 | 2.2 | – | 0.08 | 16 mL/min/kg | 42 mL/min/kg | – | 1 mL/min/kg | 2 nM | efflux ratio (BCRP (ABCG2)): 4.2 |
| CCNc1nc(Nc2cc(C(C)(C)C#N)nn2C)ncc1C(F)(F)F | – | > 150 | 1.5 | – | 0.5 | 27 mL/min/kg | 201 mL/min/kg | 18 mL/min/kg | 5 mL/min/kg | – | – |
| CNc1nc(Nc2cnn(C3CCN(C4COC4)CC3)c2C)ncc1C(F)(F)F | 20 nM | > 150 | 5.1 | Not Active | 0.06 | 22 mL/min/kg | 45 mL/min/kg | 9 mL/min/kg | 3 mL/min/kg | 4 nM | half-life [9]: 2.1 h; inhibition (INH) [10]: Not Active; Vd [11]: 1.7 L/kg |
| CNc1nc(Nc2cnn([C@H]3CCN(C4COC4)C[C@@H]3F)c2Cl)ncc1C(F)(F)F (relative stereo) | 18.7 nM | – | – | Not Active | 0.51 | 26 mL/min/kg | 261 mL/min/kg | 21 mL/min/kg | 1 mL/min/kg | 2 nM | bioavailability [12]: 74%; CL free (Cynomolgus monkey): 43 mL/min/kg; half-life [13]: 4 h; clearance [14]: 7.8 mL/min/kg; fraction unbound at 4 h, 5 µM [15]: 0.179; IC50 (Mus musculus): 20 nM; inhibition (Mus musculus): Dose-dependent effect; inhibition (TAK1/TAB1 (Homo sapiens)): 54%; Drug metabolism (Liver microsome [16]): Not Active; Drug metabolism (Liver microsome [17]): Not Active; inhibition (INH) [10]: Not Active; bioavailability [18]: 90%; Activity (Cytochrome P450 2B6): Not Active; Activity (Cytochrome P450 1A2 [19]): Not Active; Activity (Cytochrome P450 3A4): Not Active |
| CNc1nc(Nc2cnn(C3CCOCC3)c2C)ncc1C(F)(F)F | 11 nM | > 150 | 2.3 | – | 0.3 | 74 mL/min/kg | 232 mL/min/kg | 35 mL/min/kg | 5 mL/min/kg | 2 nM | half-life [20]: 0.17 h; Vd [21]: 1.1 L/kg |
| CNC(=O)C(C)(C)n1cc(Nc2ncc(C(F)(F)F)c(NC)n2)c(C)n1 | 36 nM | > 150 | 5.5 | – | – | 12 mL/min/kg | 27 mL/min/kg | – | – | – | – |
| CNc1nc(Nc2cnn3c2C(C)O[C@@H](C)C3)ncc1C(F)(F)F (some centres not stated) | 49 nM | > 150 | 1 | – | – | – | – | – | 8 mL/min/kg | 6 nM | – |
